Laboratory results from patent publication EP4702986A1, “POLYPEPTIDE AND USE THEREOF” (Biocells (Beijing) Biotech Co., Ltd., priority 2023, dated 2024).
Numbered stars: 1 amine (or outer) side, 2 acyl side, 3 side chain; on linkers, the order of the positions; unused ones are H or OH. Bridge positions count the residues as written; N and C are the ends. Side chains are listed from the residue outwards. Peptide text beside a SMILES is read from it. * marks the point of attachment. γGlu = O=C(O)[C@H](CCC(=O)[*:2])N[*:1]; Fumaroyl = O=C(O)/C=C/C(=O)*; Suc = O=C(CCC(=O)[*:2])[*:1]; Lauroyl = CCCCCCCCCCCC(=O)*; AEEA = NCCOCCOCC(=O)O

Assays:
[1] = system: rat model of pMACO; assay: Grip strength test in rat model of pMACO; assay type: in vivo, SD rats; details: pMACO rats; 3 administrations (2, 4, 6 h after modeling); IRL1620 5µg/Kg, BX34 7µg/Kg, BX48 5µg/Kg
[2] = molecular target: T1, human ETA receptor (Homo sapiens, UniProt P25101); assay: Selectivity of polypeptides on human ETA receptor (IP-One Gq kit, % of positive control ET1); assay type: cell-based; details: read-out: hETAR agonist activity, percentage of activity relative to ET1
T1 construct: expressed in transfected cells; host or cells: 293T-17 cells, transient transfection
T1 sequence (P25101 21-427): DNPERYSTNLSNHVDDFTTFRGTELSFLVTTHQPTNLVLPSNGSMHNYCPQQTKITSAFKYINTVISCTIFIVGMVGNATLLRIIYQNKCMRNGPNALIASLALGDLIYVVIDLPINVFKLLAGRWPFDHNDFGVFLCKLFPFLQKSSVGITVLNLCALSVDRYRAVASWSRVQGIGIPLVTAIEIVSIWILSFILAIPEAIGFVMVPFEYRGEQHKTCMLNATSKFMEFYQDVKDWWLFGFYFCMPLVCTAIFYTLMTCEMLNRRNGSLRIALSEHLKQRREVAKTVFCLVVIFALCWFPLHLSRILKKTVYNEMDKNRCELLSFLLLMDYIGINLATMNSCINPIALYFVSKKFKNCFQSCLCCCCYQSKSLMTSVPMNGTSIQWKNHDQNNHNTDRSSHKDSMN
Outline: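 293T-17 cells transiently transfected with human ETA receptor (48 h), 30,000 cells/well exposed to polypeptides for 1 h at 37°C; IP1 accumulation by HTRF (665/620 nm ratio). Activity given as % of ET1 at the same concentration after PBS-control subtraction.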

[3] = Determination of half-lives of polypeptides (plasma, LC-MS)
[4] = system: rat model of pMACO; assay: Rotarod test in rat model of pMACO; assay type: in vivo, SD rats; details: IRL1620 5 µg/Kg, BX34 7 µg/Kg, BX48 5 µg/Kg, administered 3 times (2, 4, 6 hours after modeling), n=10
Description: (§1) Male SD rats weighing 280-300 g were used and acclimated for at least 3 days. Focal cerebral ischemia was induced by middle cerebral artery occlusion with a suture method under isoflurane anesthesia. The animals were placed in a secure supine position, and a midline incision was made to expose the right common carotid artery, external carotid artery, and internal carotid artery. A 4.0 monofilament nylon suture was advanced from the external carotid artery toward the internal carotid artery lumen until resistance was felt ( ~ 20 mm), indicating middle cerebral artery occlusion. The nylon filament was allowed to stay in place to create a permanent model of focal cerebral ischemia. Successfully modeled rats were randomly assigned to four groups: a solvent (normal saline) group (n=10), a 7 µg/Kg BX-34 group (n=10), a 5 µg/Kg BX-48 group (n=10), and a 5 µg/Kg IRL1620 group (n=10). Each group was administered once at 2 hours, 4 hours, and 6 hours, respectively, after modeling, for a total of three administrations. Grip strength was measured before administration and at 24 hours and on D3 and D7 after administration. A rotarod test and a foot fault test were performed before administration and at 24 hours and day 7 after administration. During the rotarod test, time and distance were recorded, and ratios of the measurement at 24 hours and the measurement at D7 to the pretest measurement were used as analysis indicators. The specific method for the foot fault test was as follows. The rats were placed on an elevated grid floor (29×29 cm, grid opening: 3 cm^2) for 2 minutes, and the number of foot faults (when a forelimb fell through the grid) and the total steps were recorded. % Foot fault = (the number of forelimb faults/the total number of forelimb steps) × 100.

[5] = system: rat model of pMACO; assay: Foot fault test in rat model of pMACO; assay type: in vivo, SD rats; details: rat pMCAO; D7 after administration; comparison in words
[6] = system: rat model of pMACO; assay: Foot fault test in rat model of pMACO; assay type: in vivo, SD rats
Description: as §1

[7] = molecular target: T2, human ETB receptor (Homo sapiens, UniProt P24530); assay: Determination of EC50 of polypeptides against human ETB receptor (IP-One Gq kit); assay type: cell-based; details: 293T-17 cells transfected with PCDNA3.1-hETB; read-out: hETBR agonist activity EC50/nM
T2 construct: expressed in transfected cells; host or cells: 293T-17 cells, transient transfection
T2 sequence (P24530 27-442): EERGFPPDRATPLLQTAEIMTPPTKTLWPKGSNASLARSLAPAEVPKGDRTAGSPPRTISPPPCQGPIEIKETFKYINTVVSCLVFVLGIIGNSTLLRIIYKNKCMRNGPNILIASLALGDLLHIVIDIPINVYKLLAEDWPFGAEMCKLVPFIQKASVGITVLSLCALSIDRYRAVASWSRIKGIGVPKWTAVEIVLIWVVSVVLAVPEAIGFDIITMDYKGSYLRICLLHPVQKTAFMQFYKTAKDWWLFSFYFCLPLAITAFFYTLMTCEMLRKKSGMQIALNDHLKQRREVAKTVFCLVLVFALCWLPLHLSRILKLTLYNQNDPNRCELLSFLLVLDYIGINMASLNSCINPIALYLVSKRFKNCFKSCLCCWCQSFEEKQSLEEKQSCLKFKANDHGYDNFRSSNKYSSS
Experimental: 293T-17 cells were seeded at a density of 650,000 cells per well in a 6-well plate and cultured overnight in an incubator at 37°C and 5% CO2. Afterward, the cells were transfected with an expression vector, PCDNA3.1-hETB which contained a human ETB receptor gene, at a plasmid concentration of 2.5 µg per well. The cells were further cultured for 48 hours, and green fluorescence expression was observed under a fluorescence microscope. The cells were then digested with trypsin and counted. The activity of compounds on the human ETB receptor was determined with the IP-One Gq kit from Cisbio Bioassays. The cells were suspended in Stim Buffer provided in the kit and the cell suspension was added to a 96-well detection plate at 7 µL cell suspension (containing 30,000 cells) per well. The polypeptides to be tested (prepared according to the Preparation Example of the invention) were diluted in Stim B to obtain a gradient of 11 concentration points. For each concentration point, the polypeptides to be tested were dissolved in Stim B to be at a concentration of 2×, and added at 7 µL to the test cells, while 7 µL of PBS solution was added to the cells in the negative control wells. The plate was sealed and incubated at 37°C for 1 hour in a cell culture incubator. Detection wells, positive control wells containing human endothelin ET1 (ET1: […] (C1-C15,C3-C11)), and PBS control wells were each added with 3 µL of IP1 d2 working solution and 3 µL of IP1 Tb cryptotate Antibody working solution. The plate was then sealed and incubated in the dark at room temperature (25°C±5°C) for 1 hour. The plate seal was removed, and the […] at 665 nm and 620 nm was measured with an ID5 microplate reader. The ratio of the acceptor emission signal to the donor emission signal, i.e., (signal at 665 nm/signal at 620 nm)×10^4, was calculated for each well. With F representing the average value of values of signal at 665 nm/signal at 620 nm for the test samples at various concentrations, a scatterplot was plotted, where the abscissa represented the F value, and the ordinate represented the logarithmic value of the peptide concentration. A curve was fitted with an appropriate method to calculate EC50 values of the polypeptides against the human ETB receptor. Another method was provided for fitting a curve where activation rate of the test polypeptides at each concentration relative to the positive control sample human endothelin ET1 was calculated first with the method in Example 1, and a scatterplot was plotted, where the abscissa represented the activation rate, and the ordinate represented the logarithmic value of the polypeptide concentration. A curve was fitted with an appropriate method to calculate the EC50 values of the polypeptides against the human ETB receptor.

| SMILES | Grip Strength Test 3D/pre [1] | Grip Strength Test 7D/pre [1] | Grip Strength Test 24h/pre [1] | activation at 10 µM ([2]; @10µM) [%] | activation at 100 µM ([2]; @100µM) [%] | half-life ([3]; C57 BL/6, mouse, plasma, iv) [min] | AUClast 0-30 min ([3]; C57 BL/6 mice, i.v., dosage per compound 0.48, 0.96 or 1 mpk) [ng·h/mL] | Rotarod Test 7D/pretest (%) Distance, m ([4]; 7D relative to pretest) | Rotarod Test 7D/pretest (%) Time, s ([4]; 7D relative to pretest) | Rotarod Test 7D/pretest (%) Velocity ([4]; 7D relative to pretest) | Rotarod Test 24h/pretest (%) Distance, m ([4]; 24h relative to pretest) | Rotarod Test 24h/pretest (%) Time, s ([4]; 24h relative to pretest) | Rotarod Test 24h/pretest (%) Velocity ([4]; 24h relative to pretest) | percentages of foot faults [5] | percentages of foot faults compared with the saline group and the IRL1620 group ([6]; pMACO rats, BX-34 7 µg/Kg, BX-48 5 µg/Kg, three administrations) | Foot fault Analysis Mean of 7D ([6]; percentage of foot faults at 7D, IRL1620 5 µg/Kg, BX34 7 µg/Kg, BX48 5 µg/Kg, administered 3 times (2, 4, 6 hours after modeling)) | Foot fault Analysis Mean of 24h ([6]; percentage of foot faults at 24h, IRL1620 5 µg/Kg, BX34 7 µg/Kg, BX48 5 µg/Kg, administered 3 times (2, 4, 6 hours after modeling)) | Foot fault Analysis Mean of Pretest ([6]; percentage of foot faults, pretest (baseline before administration), groups IRL1620 5 µg/Kg, BX34 7 µg/Kg, BX48 5 µg/Kg, 3 times) | EC50 [7] [nM] |
| --- | --- | --- | --- | --- | --- | --- | --- | --- | --- | --- | --- | --- | --- | --- | --- | --- | --- | --- | --- |
| CC[C@H](C)[C@H](NC(=O)[C@H](CC(=O)O)NC(=O)[C@H](CC(C)C)NC(=O)[C@H](Cc1c[nH]cn1)NC(=O)[C@H](C)NC(=O)[C@H](Cc1ccccc1)NC(=O)[C@H](Cc1ccc(O)cc1)NC(=O)[C@@H]1CCCCNC(=O)CC[C@H](NC(=O)[C@H](CC(=O)O)NC(=O)CCC(=O)O)C(=O)N[C@@H](CCC(=O)O)C(=O)N[C@@H](C)C(=O)N1)C(=O)N[C@H](C(=O)N[C@@H](Cc1c[nH]c2ccccc12)C(=O)O)[C@@H](C)CC [BX-48] (Suc-DEEAKYFAHLDIIW-OH; lactam 2-5) | 60% ±7% | 66% ±22% | 47% ±23% | 4.45 | 9.37 | 3.9 | 757 | 64.97%±19.43% | 81.64%±10.87% | 76.52%±13.55% | 16.15%±22.62% | 23.79%±27.04% | 47.16%±30.9A % | lower than that of the saline group and the IRL1620 group | lower | 2.24%±3.1% | 10.89%±10.53% | 1.11%±0.95% |  |
| CCCCCCCCCCCC(=O)N[C@@H](CCC(=O)NCCOCCOCC(=O)NCCCC[C@H](NC(=O)[C@H](Cc1c[nH]cn1)NC(=O)[C@H](C)NC(=O)[C@H](Cc1ccccc1)NC(=O)[C@H](Cc1ccc(O)cc1)NC(=O)[C@@H](NC(=O)[C@H](C)NC(=O)[C@H](CCC(=O)O)NC(=O)[C@H](CCC(=O)O)NC(=O)[C@H](CC(=O)O)NC(=O)/C=C/C(=O)O)C(C)C)C(=O)N[C@@H](CC(=O)O)C(=O)N[C@H](C(=O)N[C@H](C(=O)N[C@@H](Cc1c[nH]c2ccccc12)C(=O)O)[C@@H](C)CC)[C@@H](C)CC)C(=O)O [BX-225-Na] (Fumaroyl-DEEAVYFAHK([AEEA-γGlu-Lauroyl])DIIW-OH) |  |  |  |  |  |  |  |  |  |  |  |  |  |  |  |  |  |  | 134 |
| CC[C@H](C)[C@H](NC(=O)[C@H](CC(=O)O)NC(=O)[C@@H]1CCCCNC(=O)CC[C@H](NC(=O)[C@H](CCC(=O)O)NC(=O)[C@H](CCC(=O)O)NC(=O)[C@H](CC(=O)O)NC(=O)/C=C/C(=O)O)C(=O)N[C@@H](C(C)C)C(=O)N[C@@H](Cc2ccc(O)cc2)C(=O)N[C@@H](Cc2ccccc2)C(=O)N[C@@H](CCCCN)C(=O)N[C@@H](Cc2c[nH]cn2)C(=O)N1)C(=O)N[C@H](C(=O)N[C@@H](Cc1c[nH]c2ccccc12)C(=O)O)[C@@H](C)CC [QP-3] (Fumaroyl-DEEEVYFKHKDIIW-OH; lactam 4-10) |  |  |  |  |  |  |  |  |  |  |  |  |  |  |  |  |  |  | 3.85 |
